{"source": "paper PMC8667888", "about": "“Discovery of a novel Aurora B inhibitor GSK650394 with potent anticancer and anti-aspergillus fumigatus dual efficacies in vitro” (Journal of Enzyme Inhibition and Medicinal Chemistry, 2021)", "key": {"[1]": {"tested_on": "acute myelogenous leukaemia (AML)", "parameters": "method as in PMID 23763917", "details": "patients with AML, combined with low-dose cytosine arabinoside (LDAC); cited from earlier work"}, "human Aurora B [2]": {"target": "T1, human Aurora B (Homo sapiens, UniProt Q96GD4)", "T1 construct": "the Hs.Aurora B kinase domain (aa.70–344) was co-expressed in E. coli cells; made in house; host or cells: E. coli BL21 (DE3) pLysS", "T1 sequence (Q96GD4 70-344)": "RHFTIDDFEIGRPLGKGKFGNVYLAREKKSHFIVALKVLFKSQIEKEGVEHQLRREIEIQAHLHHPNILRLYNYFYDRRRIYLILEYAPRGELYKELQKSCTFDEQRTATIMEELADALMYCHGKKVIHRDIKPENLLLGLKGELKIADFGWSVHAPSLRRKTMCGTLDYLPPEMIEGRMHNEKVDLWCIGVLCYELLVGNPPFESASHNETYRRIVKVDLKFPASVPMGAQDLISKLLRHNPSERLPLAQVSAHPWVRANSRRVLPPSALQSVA", "T1 sequence (Q9NQS7 835-904 partner limits assumed)": "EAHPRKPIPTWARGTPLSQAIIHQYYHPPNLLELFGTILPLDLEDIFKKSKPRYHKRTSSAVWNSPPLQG", "experiment": "Luciferase-coupled ATP assay (ATPase activity), human Aurora B", "assay_type": "biochemical", "protocol": "(§1) The pGEX-dual expression plasmid containing human (Hs.) Aurora B kinase domain (aa.54–344) and a C-terminal fragment of Hs.INCENP (aa.835–904) was obtained from Prof. Hongtao Yu (Department of Life Science, Westlake University). The cDNAs of Af.Aurora B kinase domain (aa.1–396, GenBank accession no. EDP54304.1) and the C-terminal fragment of Af.INCENP (aa.1200–1297, GenBank accession no. XP_033417438.1) was synthesised in Union Biotech (China). Protein expression and purification were performed as previously described. Briefly, The recombinant proteins of Aurora B and INCENP were coexpressed in BL21 (DE3) pLysS competent cells. For protein purification, cells co-expressing GST-INCENP and Aurora B proteins were resuspended with lysis buffer containing 50 mM Tris-HCl, pH 8.0, 200 mM NaCl, 5% glycerol, and 0.05% Triton X-100. Cells were disrupted by French Pressure (Union Biotech, China) and the supernatants were collected after centrifugation. The Aurora B/Hs.INCENP complex proteins were pooled through Glutathione columns (Smart-Lifesciences, China). […]\n(§2) A luciferase-based luminescence assay was utilised to determine the ATPase activity of Aurora B according to the manufacture’s protocols (Promega). […] At the end of the reaction, the Kinase-Glo reagent (Promega) was added and the ATPase activity was evaluated by luminescence measurement on the microplate reader (SpectraMax-L, Molecular Devices)."}, "Af.Aurora B [3]": {"target": "T2, Af.Aurora B (Aspergillus fumigatus, UniProt B0XW52)", "experiment": "Luciferase-coupled ATP assay (ATPase activity), Af.Aurora B", "assay_type": "biochemical", "details": "IC50, inhibition of ATPase activity of Af.Aurora B, recombinant Af.Aurora B, n = 3", "protocol": "as §1, §2"}, "human Haspin": {"target": "T3, human Haspin (Homo sapiens, UniProt Q8TF76)", "T3 sequence (Q8TF76 1-798)": "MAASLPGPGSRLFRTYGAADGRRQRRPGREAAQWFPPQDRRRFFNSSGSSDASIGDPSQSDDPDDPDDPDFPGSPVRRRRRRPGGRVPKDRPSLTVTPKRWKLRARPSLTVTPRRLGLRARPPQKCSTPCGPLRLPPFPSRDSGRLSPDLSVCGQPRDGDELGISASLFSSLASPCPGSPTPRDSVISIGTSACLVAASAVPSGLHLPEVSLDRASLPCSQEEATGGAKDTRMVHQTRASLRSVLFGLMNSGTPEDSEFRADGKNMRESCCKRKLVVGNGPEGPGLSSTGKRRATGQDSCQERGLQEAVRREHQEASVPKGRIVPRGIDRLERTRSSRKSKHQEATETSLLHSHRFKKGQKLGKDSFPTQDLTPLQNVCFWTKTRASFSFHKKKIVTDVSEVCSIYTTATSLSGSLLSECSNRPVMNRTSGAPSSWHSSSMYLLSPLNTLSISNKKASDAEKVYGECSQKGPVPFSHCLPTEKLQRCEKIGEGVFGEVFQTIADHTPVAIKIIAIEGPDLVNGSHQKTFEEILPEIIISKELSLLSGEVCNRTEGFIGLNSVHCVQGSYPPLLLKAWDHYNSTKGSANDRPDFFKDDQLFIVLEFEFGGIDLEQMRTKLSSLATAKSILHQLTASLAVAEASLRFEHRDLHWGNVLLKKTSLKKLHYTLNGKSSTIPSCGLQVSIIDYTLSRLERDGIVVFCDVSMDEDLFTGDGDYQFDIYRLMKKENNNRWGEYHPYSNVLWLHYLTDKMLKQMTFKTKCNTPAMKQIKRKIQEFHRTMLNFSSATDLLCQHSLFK", "experiment": "Luciferase-coupled ATP assay (ATPase activity), human Haspin", "assay_type": "biochemical", "details": "read-out: IC50, inhibition of human Haspin ATPase activity", "protocol": "(§3) A luciferase-based luminescence assay was utilised to determine the ATPase activity of Aurora B according to the manufacture’s protocols (Promega). Briefly, the Aurora B protein was incubated with 10 µM ATP in the absence or presence of various drugs at 30 °C, in a kinase buffer containing 50 mM Tris-HCl, pH7.4, 100 mM NaCl, 10 mM MgCl2, 1 mM DTT, and 0.1% Tween20. At the end of the reaction, the Kinase-Glo reagent (Promega) was added and the ATPase activity was evaluated by luminescence measurement on the microplate reader (SpectraMax-L, Molecular Devices).\nFig. S2 Effect of GSK650394 on human Haspin. (a) Comparison of ATPase activity between Aurora B and Haspin. The luminescence of ATP only control was normalized to 1.0. The values were normalized to ATP-only control set as 100% inhibition. Values are means ± S.E., n = 3. (b) Inhibition of human Haspin ATPase […]\n(1 picture or pasted object on this page, not shown here)"}, "V91A Aurora B": {"target": "T4, V91A Aurora B (Homo sapiens, UniProt Q96GD4, V91A)", "T4 construct": "the Hs.Aurora B kinase domain (aa.70–344) was co-expressed in E. coli cells; made in house; host or cells: E. coli BL21 (DE3) pLysS", "T4 sequence (Q96GD4 70-344 V91A)": "as the sequence (Q96GD4 70-344) above, with V22A counted along it", "T4 sequence (Q9NQS7 835-904 partner limits assumed)": "as the sequence (Q9NQS7 835-904 partner limits assumed) above", "experiment": "Luciferase-coupled ATP assay, V91A mutant Aurora B", "assay_type": "biochemical", "protocol": "as §3"}, "HepG2": {"tested_on": "HepG2", "experiment": "MTT cell proliferation assay, HepG2", "assay_type": "cell-based", "details": "Homo sapiens, read-out: IC50, inhibition of proliferation", "protocol": "(§4) MTT assay was conducted for cell proliferation analysis. Cells were cultured in 96-well plates (6 × 10^3/well) and treated with drugs or left untreated for 24–72 h. After treatment, cells were incubated with MTT solution (0.5 mg/mL) for 4 h at 37 °C. Then, the reactions were terminated by DMSO and the optical densities were measured by absorbance at 570 nm."}, "LO2": {"tested_on": "LO2", "experiment": "MTT cell proliferation assay, LO2", "assay_type": "cell-based", "details": "Homo sapiens, L02, read-out: IC50, inhibition of proliferation", "protocol": "as §4"}, "MCF-7": {"tested_on": "MCF-7", "experiment": "MTT cell proliferation assay, MCF-7", "assay_type": "cell-based", "details": "Homo sapiens, MCF7; MCF-7, MTT; read-out: IC50, inhibition of proliferation", "protocol": "as §4"}, "HELF": {"tested_on": "HELF", "experiment": "MTT cell proliferation assay, HELF", "assay_type": "cell-based", "details": "read-out: IC50, inhibition of proliferation", "protocol": "as §4"}, "Hela": {"tested_on": "Hela", "experiment": "MTT cell proliferation assay, Hela", "assay_type": "cell-based", "details": "Homo sapiens, read-out: IC50, inhibition of proliferation", "protocol": "as §4"}, "[4]": {"tested_on": "endogenous Aurora B in HepG2 cells", "experiment": "Histone H3 Ser10 phosphorylation in HepG2 cells (immunoblot)", "assay_type": "cell-based, human", "details": "HepG2, 9 h after release from thymidine arrest", "protocol": "(§5) HepG2 and HeLa cells were cultured in DMEM and RPMI-1640, respectively, supplemented with 10% foetal bovine serum in 37 °C and 5% CO2. G1/S synchronisation was carried out by treating cells with 2 mM of thymidine for 19 h. […] Subsequently, cells were harvested and subjected to immunoblotting or flow cytometric analysis. For flow cytometry assay, cells were trypsinized, washed once with PBS, and then fixed with cold 75% ethanol. Fixed cells were washed with PBS and resuspended in PBS containing the propidium iodide (Sigma) DNA staining solution, for 30 min at 37 °C. Then, samples were analysed using the Cytoflex cytometer (Beckman Coulter, USA) and the data were processed with the Flow Jo software."}, "[5]": {"tested_on": "endogenous Aurora B in HeLa cells", "experiment": "Histone H3 Ser10 phosphorylation in HeLa cells (immunoblot)", "assay_type": "cell-based, human", "details": "9 h after release from thymidine arrest, vs control cells", "protocol": "as §5"}, "Aspergillus fumigatus": {"tested_on": "Aspergillus fumigatus", "experiment": "Anti-Aspergillus fumigatus plate assay", "assay_type": "cell-based", "details": "37 °C, 30 h", "protocol": "A plate assay was carried out to assess the growth rate of Aspergillus fumigatus. A specified amount of Aspergillus fumigatus spores were inoculated on the centre of the plate containing solid glucose minimal medium in the absence or presence of drugs. After further incubation for 30 h at 37 °C, the growth rate was determined by measuring the diameter of Aspergillus fumigatus clonies on each plate."}, "human Aurora B [6]": {"target": "T1, human Aurora B", "experiment": "In vitro kinase assay (histone H3 Ser10 phosphorylation), human Aurora B", "assay_type": "biochemical", "details": "Western blot", "protocol": "(§6) The in vitro kinase assay was performed as previously described. The kinase activity of recombinant Aurora B was assayed by incubating 200 nM purified Aurora B/INCENP protein with 100 µM ATP and 6 µg bulk histones (from calf thymus, Sigma-Aldrich) in kinase buffer containing 50 mM Tris-HCl, pH7.4, 100 mM NaCl, 10 mM MgCl2, 1 mM DTT and 0.1% Tween20. After 15-min incubation at 30 °C, the reaction was quenched by SDS-sample buffer, separated on SDS-PAGE, and immunoblotted with anti-histone H3 and anti-histone H3 phospho-Ser10 (pS10) antibodies. The blots were scanned and quantified with the ChemiDoc™ Touch imaging system (Bio-rad). To investigate the compounds’ inhibitory effect, Aurora B was pre-incubated with DMSO or various concentrations of drugs for 15 min at room temperature and the reactions were then initialised by the addition of ATP and histone substrates."}, "Af.Aurora B [7]": {"target": "T2, Af.Aurora B", "experiment": "In vitro kinase assay (histone H3 phosphorylation), Af.Aurora B", "assay_type": "biochemical", "details": "Western blot", "protocol": "as §6"}}, "note": "Several values for one entry are separate records, joined by “and”; a condition that tells them apart may be missing. Equal entries are not always repeated.", "data": [{"smiles": "CCN(CCCOc1ccc2c(Nc3cc(CC(=O)Nc4cccc(F)c4)n[nH]3)ncnc2c1)CCOP(=O)(O)O", "note": "[barasertib]", "values": [{"measurement": "overall response rate", "setting": "[1]", "value": 45, "unit": "%"}]}, {"smiles": "O=C(O)c1ccc(-c2c[nH]c3ncc(-c4ccccc4)cc23)cc1C1CCCC1", "note": "[GSK650394]", "values": [{"measurement": "IC50", "setting": "human Aurora B [2]", "value": 5680, "unit": "nM"}, {"measurement": "IC50", "setting": "Af.Aurora B [3]", "value": "1290 nM and 1300 nM"}, {"measurement": "IC50", "setting": "human Haspin", "value": 41400, "unit": "nM"}, {"measurement": "reduction of inhibitory effect by mutation of Val91", "setting": "V91A Aurora B; V91A vs wild type", "value": "> 20", "unit": "fold"}, {"measurement": "IC50", "setting": "V91A Aurora B; Val91 mutant, read-out: IC50, inhibition of V91A Aurora B", "value": "> 100000", "unit": "nM"}, {"measurement": "IC50", "setting": "HepG2", "value": "1530 ± 1880", "unit": "nM"}, {"measurement": "IC50", "setting": "LO2", "value": "1750 ± 1280", "unit": "nM"}, {"measurement": "IC50", "setting": "MCF-7", "value": "1420 ± 1190", "unit": "nM"}, {"measurement": "IC50", "setting": "HELF", "value": "6140 ± 1330", "unit": "nM"}, {"measurement": "IC50", "setting": "Hela", "value": "3570 ± 1380", "unit": "nM"}, {"measurement": "concentration at which H3 phosphorylation is abolished", "setting": "[4]", "value": 2.5, "unit": "µM"}, {"measurement": "effect on histone H3 phosphorylation", "setting": "[4]; vs control cells", "value": "significant attenuation of histone H3 phosphorylation"}, {"measurement": "effect on histone H3 phosphorylation", "setting": "[5]", "value": "significant attenuation of histone H3 phosphorylation"}, {"measurement": "growth rate of Aspergillus fumigatus (diameter of colonies)", "setting": "Aspergillus fumigatus", "value": "markedly inhibited in a dose-dependent manner"}, {"measurement": "effect on phosphorylation of histone H3 Ser10 by Aurora B", "setting": "human Aurora B [6]", "value": "diminish the phosphorylation of histone H3 Ser10"}, {"measurement": "effect on kinase activity of Af. Aurora B", "setting": "Af.Aurora B [7]", "value": "effectively inhibits"}]}]}
